From PMC6691788, “Design and synthesis of phthalazine-based compounds as potent anticancer agents with potential antiangiogenic activity via VEGFR-2 inhibition” (Journal of Enzyme Inhibition and Medicinal Chemistry, 2019)
Where two headings read alike, the source gives them in different places.

Key:
[1] = test system: HOP-92; experiment: NCI 60 cell panel SRB screen; type: cell-based; conditions: Homo sapiens; for GI50 / IC (TGI) / CC50: HOP-92, 5 log dose; for CC50: 48 h, read-out: LC50 (the source's name); for activity at 10 µM: HOP-92, single dose 10 μM, read-out: percent cell growth promotion
[2] = test system: NCI-H522; experiment: NCI 60 cell panel SRB screen; type: cell-based; conditions: Homo sapiens; for GI50 / IC (TGI) / CC50: NCI-H522, 5 log dose; for CC50: 48 h, read-out: LC50 (the source's name); for activity at 10 µM: NCI-H522, single dose 10 μM, read-out: percent cell growth promotion
[3] = test system: SW-620; experiment: NCI 60 cell panel SRB screen; type: cell-based; conditions: Homo sapiens; for GI50 / IC (TGI) / CC50: SW-620, 5 log dose; for CC50: 48 h, read-out: LC50 (the source's name); for activity at 10 µM: SW-620, single dose 10 μM, read-out: percent cell growth promotion
[4] = test system: MALME-3M; experiment: NCI 60 cell panel SRB screen; type: cell-based; conditions: Homo sapiens; for GI50 / IC (TGI) / activity at 10 µM: Malme-3M; for IC (TGI): read-out: TGI; for activity at 10 µM: read-out: percent cell growth promotion; for CC50: MALME-3M, 5 log dose, 48 h, read-out: LC50 (the source's name)
[5] = test system: MDA-MB-435; experiment: NCI 60 cell panel SRB screen; type: cell-based; conditions: Homo sapiens; for GI50: MDA-MB-435; for IC (TGI): MDA-MB-435, read-out: TGI; for activity at 10 µM: MDA-MB-435, read-out: percent cell growth promotion; for CC50: MDA-MB-435, 5 log dose, 48 h, read-out: LC50 (the source's name)
[6] = test system: OVCAR-4; experiment: NCI 60 cell panel SRB screen; type: cell-based; conditions: Homo sapiens; for GI50 / IC (TGI) / CC50: OVCAR-4, 5 log dose; for CC50: 48 h, read-out: LC50 (the source's name); for activity at 10 µM: OVCAR-4, single dose 10 μM, read-out: percent cell growth promotion
[7] = test system: CAKI-1; experiment: NCI 60 cell panel SRB screen; type: cell-based, human; conditions: Homo sapiens; CAKI-1, single dose 10 μM; read-out: percent cell growth promotion
[8] = test system: SN12C; experiment: NCI 60 cell panel SRB screen; type: cell-based; conditions: Homo sapiens; for GI50 / IC (TGI) / CC50: 5 log dose; for CC50: 48 h, read-out: LC50 (the source's name); for activity at 10 µM: single dose 10 μM, read-out: percent cell growth promotion
[9] = test system: DU-145; experiment: NCI 60 cell panel SRB screen; type: cell-based; conditions: Homo sapiens; for GI50 / IC (TGI) / CC50: DU-145, 5 log dose; for CC50: 48 h, read-out: LC50 (the source's name); for activity at 10 µM: DU-145, single dose 10 μM, read-out: percent cell growth promotion
[10] = test system: MDA-MB 231/ATCC; experiment: NCI 60 cell panel SRB screen; type: cell-based; conditions: Homo sapiens; for GI50 / CC50: MDA-MB-231; for IC (TGI): MDA-MB-231, read-out: TGI; for activity at 10 µM: MDA-MB-231, read-out: percent cell growth promotion; for CC50: MDA-MDA 231/ATCC, 5 log dose, 48 h, read-out: LC50 (the source's name)
[11] = test system: HS 578T; experiment: NCI 60 cell panel SRB screen; type: cell-based; conditions: Homo sapiens; for GI50 / IC (TGI) / activity at 10 µM: Hs-578T; for IC (TGI): read-out: TGI; for activity at 10 µM: read-out: percent cell growth promotion; for CC50: HS 578T, 5 log dose, 48 h, read-out: LC50 (the source's name)
[12] = test system: full NCI 60 cell panel; experiment: NCI 60 cell panel SRB screen, whole panel; type: cell-based, human; conditions: Homo sapiens, 60 cell; for activity at 10 µM: mean over the panel, single dose 10 μM, read-out: Mean percent cell growth promotion; for inhibition at 10 µM: single dose 10 µM
[13] = read-out: cell growth inhibition against various cell lines

## COc1cccc(NCc2nnc(Nc3ccc(Cl)cc3)c3ccccc23)c1 [Compound 16d, N-(4-Chlorophenyl)-4-((3-methoxyphenylamino)methyl)phthalazin-1-amine]
[1]
  GI50: 0.32 µM
  IC (TGI): 2.91 µM
  CC50: > 25 µM
  activity at 10 µM: -32.8%
[2]
  GI50: 0.32 µM
  IC (TGI): 3.31 µM
  CC50: 13.1 µM
  activity at 10 µM: -43.8%
[3]
  GI50: 2.98 µM
  IC (TGI): 8.13 µM
  CC50: 22.2 µM
  activity at 10 µM: 11.9%
[4]
  GI50: 1.22 µM
  IC (TGI): 6.23 µM
  activity at 10 µM: -22%
  CC50: 17.3 µM
[5]
  GI50: 0.73 µM
  IC (TGI): 4.38 µM
  activity at 10 µM: -10.3%
  CC50: 12 µM
[6]
  GI50: 1.33 µM
  IC (TGI): 17.6 µM
  CC50: > 25 µM
  activity at 10 µM: 17.2%
[7]
  activity at 10 µM: 9.01%
[8]
  GI50: 2.52 µM
  IC (TGI): 11 µM
  CC50: > 25 µM
  activity at 10 µM: 14.5%
[9]
  GI50: 2.4 µM
  IC (TGI): 6.52 µM
  CC50: 17.2 µM
  activity at 10 µM: 8.3%
[10]
  GI50: 1.32 µM
  IC (TGI): 6.32 µM
  activity at 10 µM: -27.1%
  CC50: 19.7 µM
[11]
  GI50: 2.9 µM
  IC (TGI): 11.5 µM
  activity at 10 µM: 0.54%
  CC50: > 25 µM
[12]
  activity at 10 µM: -16%
[12]; full panel, read-out: mean growth inhibition
  inhibition at 10 µM: 116%
[12]; [13]
  inhibition at 10 µM: > 90%

## Clc1ccc(Nc2nnc(COc3ccccc3)c3ccccc23)cc1 [Compound 17a, N-(4-Chlorophenyl)-4-(phenoxymethyl)phthalazin-1-amine]
[1]
  GI50: 0.33 µM
  IC (TGI): 3.09 µM
  CC50: > 25 µM
  activity at 10 µM: -28%
[2]
  GI50: 0.35 µM
  IC (TGI): 4.04 µM
  CC50: 16.7 µM
  activity at 10 µM: -17.4%
[3]
  GI50: 2.86 µM
  IC (TGI): 7.79 µM
  CC50: 21.2 µM
  activity at 10 µM: 15.4%
[4]
  GI50: 1.38 µM
  IC (TGI): 7.3 µM
  activity at 10 µM: -13.5%
  CC50: 25 µM
[5]
  GI50: 1.01 µM
  IC (TGI): 5.31 µM
  activity at 10 µM: -3.33%
  CC50: 16.2 µM
[6]
  GI50: 2.09 µM
  IC (TGI): > 25 µM
  CC50: > 25 µM
  activity at 10 µM: 18.1%
[7]
  activity at 10 µM: 15.4%
[8]
  GI50: 2.12 µM
  IC (TGI): 8.07 µM
  CC50: > 25 µM
  activity at 10 µM: 17%
[9]
  GI50: 2.65 µM
  IC (TGI): 10.5 µM
  CC50: > 25 µM
  activity at 10 µM: 10.4%
[10]
  GI50: 1.28 µM
  IC (TGI): 6.9 µM
  activity at 10 µM: 11.4%
  CC50: 24.8 µM
[11]
  GI50: 2.58 µM
  IC (TGI): 10.5 µM
  activity at 10 µM: 14.4%
  CC50: > 25 µM
[12]
  activity at 10 µM: -4.07%
[12]; [13]
  inhibition at 10 µM: > 90%
